Laboratory results reported in patent US6645976B1 (Eli Lilly and Company, priority 1994, dated 2003).
pIC50: −log10 of the molar value. Counter-ions that a name gives are not always drawn.

Key:
[1] = target: T1, recombinant human secreted phospholipase A2 (Homo sapiens, UniProt P14555); test: sPLA2 Chromogenic Assay (Assay 1); format: biochemical; settings: diheptanoyl thio-PC substrate, pH 7.5, 40° C. for 30 minutes, absorbance at 405 nanometers
T1 sequence (P14555 21-144): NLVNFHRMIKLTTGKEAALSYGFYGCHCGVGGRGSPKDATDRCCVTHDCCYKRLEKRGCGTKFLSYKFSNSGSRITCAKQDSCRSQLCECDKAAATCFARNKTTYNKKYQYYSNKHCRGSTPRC

SMILES	melting point	pIC50 [1]
CCCCCC1CCC(Cc2c(CC)c(C(=O)C(N)=O)c3c(OCC(=O)O)cccn23)CC1 (stereo not shown) (as salt: Na) [Compound 52o, 2-(8-(Carboxymethyloxy)-2-ethyl-3-(4-n-pentylcyclohexylmethyl)indolizin-1-yl)glyoxylamide]	224 to 225 °C	–
CCc1c(CC(N)=O)c2c(OCC(=O)OC)cccn2c1Cc1ccccc1 [Compound 21v, Methyl (3-Benzyl-1-carbamoylmethyl-2-ethylindolizin-8-yloxy)acetate]	159 to 163 °C	–
CCc1c(CC(N)=O)c2c(OCC(=O)OCc3ccccc3)cccn2c1Cc1cccc(Cl)c1 [Compound 21y, 2-(8-(Benzyloxycarbonylmethyloxy)-3-(m-chlorobenzyl)-2-ethylindolizin-1-yl)acetamide]	157 to 158 °C	6.46
CCc1c(CC(N)=O)c2c(OCC(=O)O)cccn2c1-c1cccc2ccccc12 [Compound 22w, 2-(8-(Carboxymethyloxy)-2-ethyl-3-(1-naphthyl)indolizin-1-yl)acetamide]	129 to 133 °C	–
CCOC(=O)COc1cccn2c(Cc3cccc(Cl)c3)c(CC)c(C(=O)C(N)=O)c12 [Compound 37h, (8-(Carbethoxymethyloxy)-3-(m-chlorobenzyl)-2-ethylindolizin-1-yl)glyoxylamide]	172 to 175 °C	–
CCc1c(C(=O)C(N)=O)c2c(OCC(=O)OC(C)(C)C)cccn2c1Cc1ccccc1 [Compound 38a, (3-Benzyl-8-(t-butoxycarbonylmethyloxy)-2-ethylindolizin-1-yl)glyoxylamide]	161 to 162 °C	7.28
CCc1c(C(=O)C(N)=O)c2c(OCC(=O)OC)cccn2c1Cc1cccc(C(F)(F)F)c1 [Compound 39i, (8-(Carbmethoxymethyloxy)-2-ethyl-3-(m-trifluoromethylbenzyl)indolizin-1-yl)glyoxylamide]	136 to 137 °C	–
CCc1c(C(=O)C(=O)N(C)C)c2c(OCC(=O)O)cccn2c1Cc1ccccc1-c1ccccc1 [Compound 40f, (8-(Carboxymethyloxy)-2-ethyl-3-(o-phenylbenzyl)indolizin-1-yl)glyoxyl-N,N-dimethylamide]	208 to 209 °C	< 4.30
CCCCc1ccc(Cc2c(CC)c(C(=O)C(N)=O)c3c(OC)cccn23)cc1 [Compound 49s, 2-(3-(p-n-Butylbenzyl)-2-ethyl-8-methoxyindolizin-1-yl)glyoxylamide]	195 to 196 °C	6.44
CCc1c(C(=O)C(N)=O)c2c(OCC(=O)OC)cccn2c1CC1CCCCC1 [Compound 51b, 2-(8-(Carbomethoxymethyloxy)-3-cyclohexylmethyl-2-ethylindolizin-1-yl)glyoxylamide]	149 to 150 °C	6.51
CCc1c(C(=O)C(N)=O)c2c(OCC(=O)OC)cccn2c1-c1cccs1 [Compound 51k]	182 °C	–
CCc1c(C(=O)C(N)=O)c2c(OCC(=O)OC)cccn2c1Cc1ccccc1[N+](=O)[O-] [Compound 51n, 2-(2-Ethyl-8-(carbomethoxymethyloxy)-3-(o-nitrobenzyl)indolizine-1-yl)glyoxylamide]	156 to 157 °C	–
COC(=O)COc1cccn2c(CC34CC5CC(CC(C5)C3)C4)c(C)c(C(=O)C(N)=O)c12 [Compound 51p, 2-(3-(Adamant-1-ylmethyl)-8-(carbomethoxymethyloxy)-2-methylindolizin-1-yl)glyoxylamide]	191 to 192 °C	–
NC(=O)C(=O)c1c(C2CC2)c(Cc2ccccc2-c2ccccc2)n2ccc(OCCCC(=O)O)cc12 [Compound 67b, 2-(7-(3-Carboxypropyloxy)-2-cyclopropyl-3-(o-phenylbenzyl)indolizin-1-yl)glyoxylamide]	112 to 121 °C (dec.)	–
CCOC(=O)COc1ccn2c(Cc3ccccc3-c3ccccc3)c(CC)c(C(=O)C(N)=O)c2c1 [Compound 68b, 2-(7-(Carboethoxymethyloxy)-2-ethyl-3-(o-phenylbenzyl)indolizin-1-yl)glyoxylamide]	119 to 121 °C	–
CCc1c(CC(N)=O)c2cc(OCCCC(=O)O)ccn2c1Cc1ccccc1-c1ccccc1 [Compound 71b, 2-(7-(3-Carboxypropyloxy)-2-ethyl-3-(o-phenylbenzyl)indolizin-1-yl)acetamide]	105 to 120 °C (dec.)	–
COC(=O)CNc1cccn2c(CC3CCCCC3)c(C)c(C(=O)C(N)=O)c12 [Compound 89b, 2-(8-methoxycarbonylmethylamino-3-cyclohexylmethyl-2-methyl-indolizin-1-yl)-glyoxylamide]	173 to 177 °C	–
Cc1c(C(=O)C(N)=O)c2c(NCC(=O)O)cccn2c1CC1CCCCC1 [Compound 90b, 2-(8-Carboxymethylamino-3-cyclohexylmethyl-2-methyl-indolizin-1-yl)-glyoxylamide]	> 300 °C	–

Second part, the compound after the results:

melting point	pIC50 [1]	SMILES
198 to 199 °C	6.05	Cc1c(C(=O)C(N)=O)c2ccccn2c1Cc1ccccc1 [Compound 34, (3-Benzyl-2-methylindolizin-1-yl)glyoxylamide]
188 to 189 °C	6.40	CCc1c(C(=O)C(N)=O)c2c(OCc3ccccc3)cccn2c1Cc1ccccc1 [Compound 35a, (3-Benzyl-8-benzyloxy-2-ethylindolizin-1-yl)glyoxylamide]
212 to 214 °C	7.33	Cc1c(C(=O)C(N)=O)c2c(OCc3ccccc3)cccn2c1Cc1ccccc1 [Compound 35g, (3-Benzyl-8-benzyloxy-2-methylindolizin-1-yl)glyoxylamide]
191 to 192 °C	7.36	CCOC(=O)COc1cccn2c(Cc3ccccc3)c(CC)c(C(=O)C(N)=O)c12 [Compound 37a, (3-Benzyl-8-(carbethoxymethyloxy)-2-ethylindolizin-1-yl)glyoxylamide]
127 to 129 °C	7.89	CCOC(=O)COc1cccn2c(Cc3ccccc3-c3ccccc3)c(CC)c(C(=O)C(N)=O)c12 [Compound 37d, (8-(Carbethoxymethyloxy)-2-ethyl-3-(o-phenylbenzyl)indolizin-1-yl)glyoxylamide]
193 to 195 °C	7.64	CCOC(=O)COc1cccn2c(Cc3ccccc3)c(C)c(C(=O)C(N)=O)c12 [Compound 37g, (3-Benzyl-8-(carbethoxymethyloxy)-2-methylindolizin-1-yl)glyoxylamide]
178 to 179 °C	–	COC(=O)COc1cccn2c(Cc3ccccc3-c3ccccc3)c(C3CC3)c(C(=O)C(N)=O)c12 [Compound 39k, (8-(Carbmethoxymethyloxy)-2-cyclopropyl-3-(o-phenylbenzyl)indolizin-1-yl)glyoxylamide]
191 to 192 °C	6.10	CCc1c(C(=O)C(N)=O)c2c(OCc3ccccc3)cccn2c1Cc1cccs1 [Compound 49k, 2-(8-Benzyloxy-2-ethyl-3-(thiophen-2-ylmethyl)indolizin-1-yl)glyoxylamide]
186 to 188 °C	–	COC(=O)COc1cccn2c(Cc3ccccc3)c(C3CC3)c(C(=O)C(N)=O)c12 [Compound 51r, 2-(3-Benzyl-8-carbomethoxymethyloxy-2-cyclopropylindolizin-1-yl)-glyoxylamide]
293 °C (dec.)	–	COC(=O)CNc1cccn2c(Cc3ccccc3)c(C)c(C(=O)C(N)=O)c12 [Compound 89a, 2-(3-Benzyl-8-methoxycarbonylmethylamino-2-methyl-indolizin-1-yl)-glyoxylamide]
